Like-named read-outs stand apart in the source and are kept apart here.
Columns and labels:
Type in all cases: in vivo
[1] = test system: Mycosphaerella graminicola; Anamorph: Septoria tritici; assay: Leaf blotch of wheat (SEPTTR) disease control on wheat seedlings; conditions: Zymoseptoria tritici; for pest or weed control at 121.5 g/ha: low volume application, 121.5 g/H
Outline: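 Wheat seedlings (Yuma, first leaf emerged) sprayed to run-off with compound in acetone/water with 110 ppm Triton X-100, or track-sprayed as EC with 0.1% Trycol 5941. Septoria tritici spores inoculated before or after treatment. Dew chambers, then 20 °C greenhouse. Percent disease control derived from severity (0–100%) relative to untreated plants.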

[2] = test system: Erysiphe cichoracearum; assay: Powdery mildew of cucumber (ERYSCI) disease control; conditions: Golovinomyces cichoracearum, 24 h, 1 Day Protectant, high volume, read-out: Disease Control ERYSCI 1 DP
Protocol: Technical grades of materials were dissolved in acetone, which were then mixed with nine volumes of water containing 110 ppm Triton X-100. The fungicide solutions were applied onto wheat seedlings using an automated booth sprayer to run-off. All sprayed plants were allowed to air dry prior to further handling. All fungicides were evaluated using the aforementioned method for their activity vs. all target diseases. Wheat leaf blotch and brown rust activity were also evaluated using track spray applications, in which case the fungicides were formulated as EC formulations, containing 0.1% Trycol 5941 in the spray solutions. Cucumber seedlings (variety Bush Pickle) were grown in soil-less Metro mix, with one plant per pot, and used in the test when 12 to 14 days old. Plants were inoculated with a spore suspension 24 hr following fungicide treatments. After inoculation the plants remained in the greenhouse set at 20° C. until disease was fully expressed. Fungicide formulation, application and disease assessment on the sprayed leaves followed the procedures as described in the Example A.

[3] = test system: Phakopsora pachyrhizi; assay: Asian soybean rust (PHAKPA) disease control; conditions: topical, high volume
Outline: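 Compounds in acetone diluted with nine volumes water containing 0.011% Tween 20, sprayed to run-off on two-week-old Williams 82 soybean seedlings, inoculated 3 days before or 1 day after treatment. Plants held 24 h in dark dew room at 22 °C, 100% RH, then at 23 °C; disease severity scored on sprayed leaves.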

[4] = test system: Magnaporthe grisea; Anamorph: Pyricularia oryzae; assay: whole plant or invertebrate; conditions: 24 h, read-out: PYRIOR 1 DP disease control
[5] = test system: Alternaria solani; assay: Tomato early blight (ALTESO) disease control; conditions: 24 h, 1 Day Protectant, high volume, read-out: Disease Control ALTESO 1 DP
Protocol: Technical grades of materials were dissolved in acetone, which were then mixed with nine volumes of water containing 110 ppm Triton X-100. The fungicide solutions were applied onto wheat seedlings using an automated booth sprayer to run-off. All sprayed plants were allowed to air dry prior to further handling. All fungicides were evaluated using the aforementioned method for their activity vs. all target diseases. Wheat leaf blotch and brown rust activity were also evaluated using track spray applications, in which case the fungicides were formulated as EC formulations, containing 0.1% Trycol 5941 in the spray solutions. Tomato plants (variety Outdoor girl) were propagated in soil-less Metro mix, with each pot having one plant, and used when 12 to 14 days old. Test plants were inoculated with an aqueous spore suspension of Alternaria solani 24 hr after fungicide treatments. After inoculation the plants were kept in 100% relative humidity (one day in a dark dew chamber followed by two to three days in a lighted dew chamber at 20° C.) to permit spores to germinate and infect the leaf. The plants were then transferred to a growth room at 22° C. for disease to develop. Fungicide formulation, application and disease assessment on the sprayed leaves followed the procedures as described in the Example A.

[6] = test system: Glomerella lagenarium; Anamorph: Colletotrichum lagenarium; assay: Cucumber anthracnose (COLLLA) disease control; conditions: Colletotrichum orbiculare, 24 h, 1 Day Protectant, high volume, read-out: Disease Control COLLLA 1 DP
Outline: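 Compounds were dissolved in acetone, diluted with nine volumes of water containing 110 ppm Triton X-100 and sprayed to run-off on 12–14-day-old Bush Pickle cucumber seedlings. Plants were spore-inoculated 24 hr later and held 48 hr at 22 °C and 100% RH, then in a 22 °C growth room. Disease on sprayed leaves was then assessed.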

[7] = 24 h, Wheat Leaf Blotch, 1 Day Protectant, high volume application, read-out: Disease Control SEPTTR 1 DP 100 ppm
[8] = 24 h, Wheat Leaf Blotch, 1 Day Protectant, read-out: Disease Control SEPTTR 1 DP 121.5 g/H
[9] = 72 h, Wheat Leaf Blotch, 3 Day Curative, high volume application, read-out: Disease Control SEPTTR 3 DC 100 ppm
[10] = 72 h, Wheat Leaf Blotch, 3 Day Curative, read-out: Disease Control SEPTTR 3 DC 121.5 g/H
[11] = 24 h, 1 Day Protectant, read-out: Disease Control PHAKPA 1DP
[12] = 72 h, 3 Day Curative, read-out: Disease Control PHAKPA 3DC
[13] = 24 h, High volume application, 1 Day Protectant, read-out: SEPTTR 1DP disease control
[14] = 72 h, High volume application, 3 Day Curative, read-out: SEPTTR 3DC disease control

Row | SMILES | pest or weed control at 100 ppm [1, 7] | pest or weed control at 121.5 g/ha [1, 8] | pest or weed control at 100 ppm [1, 9] | pest or weed control at 121.5 g/ha [1, 10] | pest or weed control at 100 ppm [2] | pest or weed control at 25 ppm [3, 11] | pest or weed control at 25 ppm [3, 12] | pest or weed control at 100 ppm [4] | pest or weed control at 100 ppm [5] | pest or weed control at 100 ppm [6] | pest or weed control at 100 ppm [1, 13] | pest or weed control at 100 ppm [1, 14]
1 | COc1ccnc(C(=O)N[C@H]2CCC[C@H](Oc3ccccc3)[C@@H](OC(=O)C3CC3)[C@H](C)OC2=O)c1OC(C)=O [F242] | 80 to 100% | 0 to 80% | 80 to 100% | 0 to 80% | < 0% | 80 to 100% | 0 to 80% | 80 to 100% | < 0% | 80 to 100% | – | –
2 | COc1ccnc(C(=O)N[C@H]2CCC[C@H](Oc3ccccc3)[C@@H](OC(=O)C3CC3)[C@H](C)OC2=O)c1OCOC(=O)C(C)C [F241] | 80 to 100% | < 0% | 80 to 100% | < 0% | < 0% | 80 to 100% | 0 to 80% | 80 to 100% | 0 to 80% | 80 to 100% | – | –
3 | C=C(C)CO[C@H]1CCC[C@H](NC(=O)c2nccc(OC)c2OCOC(=O)C(C)C)C(=O)O[C@@H](C)[C@@H]1OC [F253] | – | < 0% | – | < 0% | < 0% | 0 to 80% | < 0% | 80 to 100% | 0 to 80% | 80 to 100% | – | –
4 | COc1ccnc(C(=O)N[C@H]2CCC[C@H](OCC(C)C)[C@@H](OCC(C)C)[C@H](C)OC2=O)c1OCOC(=O)C(C)C [F37] | – | – | – | – | 80 to 100% | 80 to 100% | – | 80 to 100% | 80 to 100% | 80 to 100% | 80 to 100% | 80 to 100%
5 | COc1ccnc(C(=O)N[C@H]2CCC[C@H](OCC(C)C)[C@@H](OC)[C@H](C)OC2=O)c1OCOC(=O)C(C)C [F254] | – | < 0% | – | < 0% | < 0% | 80 to 100% | 0 to 80% | 80 to 100% | 0 to 80% | 80 to 100% | – | –
6 | COc1ccnc(C(=O)N[C@H]2CCC[C@H](OCC(C)C)[C@@H](OC3CCCC3)[C@H](C)OC2=O)c1OCOC(C)=O [F39] | – | – | – | – | 80 to 100% | 80 to 100% | 80 to 100% | 80 to 100% | 80 to 100% | 80 to 100% | 80 to 100% | 80 to 100%
7 | COc1ccnc(C(=O)N[C@H]2CCC[C@H](Oc3ccccc3)[C@@H](Oc3ccccc3)[C@H](C)OC2=O)c1OCOC(=O)C(C)C [F36] | – | – | – | – | 0 to 80% | 80 to 100% | 80 to 100% | 80 to 100% | 80 to 100% | 80 to 100% | 80 to 100% | 80 to 100%
8 | COc1ccnc(C(=O)N[C@H]2CCC[C@H](Oc3ccccc3)[C@@H](OCC(C)C)[C@H](C)OC2=O)c1OCOC(=O)C(C)C [F35] | – | – | – | – | 80 to 100% | 80 to 100% | – | 80 to 100% | 80 to 100% | 80 to 100% | 80 to 100% | 80 to 100%
9 | COc1ccnc(C(=O)N[C@H]2CCC[C@H](OCc3ccccc3)[C@@H](OCc3ccccc3)[C@H](C)OC2=O)c1OCOC(C)=O [F30] | – | – | – | – | 0 to 80% | 80 to 100% | 0 to 80% | 80 to 100% | 0 to 80% | 80 to 100% | 80 to 100% | 0 to 80%
10 | CCCO[C@H]1CCC[C@H](NC(=O)c2nccc(OC)c2OC(=O)CCOC)C(=O)O[C@@H](C)[C@@H]1Oc1ccccc1 [F140] | – | – | – | – | < 0% | 80 to 100% | 80 to 100% | 80 to 100% | 80 to 100% | 80 to 100% | 80 to 100% | 80 to 100%
11 | COc1ccnc(C(=O)N[C@H]2CCC[C@H](Oc3ccccc3)[C@@H](Oc3ccccc3)[C@H](C)OC2=O)c1OCOC(C)=O [F20] | – | – | – | – | 0 to 80% | 80 to 100% | 80 to 100% | 80 to 100% | 0 to 80% | 80 to 100% | 80 to 100% | 80 to 100%
12 | COc1ccnc(C(=O)N[C@H]2CCC[C@H](OCC(C)C)[C@@H](OC3CCCC3)[C@H](C)OC2=O)c1OCOC(=O)C(C)C [F38] | – | – | – | – | 80 to 100% | 80 to 100% | 80 to 100% | 80 to 100% | 80 to 100% | 80 to 100% | 80 to 100% | 80 to 100%

Reference: US9681664B2, “Macrocyclic picolinamides as fungicides” (Dow Agrosciences LLC, priority 2012, dated 2017)
